The source of these data is publication PMC13327620, “A Deep‐Red‐Absorbing Osmium(II) Complex as a Photosensitizer for Photodynamic Therapy Inducing Immunogenic Cell Death” (Angewandte Chemie (International Ed. in English), 2026).

The test system of one experiment is calreticulin (ecto‐CRT). The experiment is described as follows: Immunofluorescence staining of cell surface calreticulin in CT26 cells. It is filed as cell-based, mouse. Particulars: CT26, 740 nm light. How it is done:
Next, translocation of ER‐resident calreticulin (endo‐CRT) to the cell surface (ecto‐CRT) was measured by confocal microscopy following treatments with Ce6 or Os2 exposed to 740 or 770 nm illumination (Figure 3B,D). In this experiment, cells were fixed but not permeabilized before CRT staining to label only the ecto‐CRT, which is present at the cell surface. […]
concentrations and incub ated for 4 h in the dark. Following the 4 h dark incubation with Os2, wells containing the compound were replaced with the medium containing the selective ROS s caveng ers: 5 mM sodium azide (NaN₃) for singlet oxygen (¹O₂) or 50 mM D-mannitol for hydroxyl radicals (•OH). […] Cell viability was assessed using a 0.2 mg/mL resazurin solution incubated in the dark for 4 h, and fluorescence was measured on a BioTek Cytation 5 Cell Imaging Multimode […]
Singlet oxygen and hydroxyl r adical generation k inetics of Os2 in s olution The generation of singlet oxygen (¹O₂) and hydroxyl radicals (•OH) by Os2 in solution was evalu ated using AB DA (100 μ M) and HPF (5 μ M) as probes, respectively. […] AB DA absorban ce d ecay was monitored to track ¹O₂ gener ation, while HPF fluorescence increas e (λex = 490 nm; λ em = 500-700 nm) was measured to track •OH formation. Control solutions without Os2 wer e measured under the same conditions to account for background signals. […]

Another experiment concerns MCA205 cells. The experiment is described as follows: Annexin V-FITC/propidium iodide (AV/PI) cell viability assay by flow cytometry. It is filed as cell-based, mouse. To be noted: MCA205, 740 nm LED light illumination. An excerpt: Regarding the optimal dose of each drug for in vivo vaccination, we continued to follow the same standards as with CT26‐luc cells, using the concentration of each drug that results in approximately 5% of live cells as the in vivo dose. The testing method remained the same, using the AV/PI dual staining assay. Negative controls still included the untreated group (direct injection of PBS solution) and the non‐ICD inducer Cisplatin. Based on the in vitro HMGB‐1 release results, Ce6 was maintained as the positive control. For a more comprehensive comparison, we also added the platinum‐based chemotherapeutic agent Oxaliplatin as a non‐PS ICD inducer, serving as an additional positive control.
As the drug concentration increased, the cells gradually shifted to dying (Q3, Annexin V^+/PI^−) or dead (Q2, Annexin V^+/PI^+ and Q1, Annexin V^−/PI^+) state. For MCA205 cells, the concentrations corresponding to approximately 5% cell survival for each drug were 500 µM Cisplatin and 1400 µM Oxaliplatin in the dark, 5.5 µM Ce6 and 3 µM Os2 under 740 nm LED light illumination. […]
incubated for 24 h. Cells were then treat ed with the determined IC50 of complexes and irradiated or kept in the dark. Supernatants were collected 12 h post-t reatm ent, and the extracellular ATP content was measured with Adenosine 5′ -triphosphate (ATP) Bioluminescent Assay Kit (Sigma-Aldrich) according tomanufacturer ’s ins truction.
Cell viability assay f o r in vivo by flow cytometry
CT26-luc or MCA205 cells were seeded in 6-well plates at a density of 1 ×1 05 cells per well and cultured for 24 h at 37 °C with 5% CO 2. The medium was replaced by various concentrations of the compound dilutions in fresh medium.For Ce6 and Os2, after 4 h incubation in the dark, the medium w as r efr eshed and the plates wer e illuminated with a LUMOS-BIO photoreactor (Atlas Photonics), followed by an additional 20- h incubation in the dark. […]
556419) and PI (BD Biosciences, Catalog no.51- 66211E). CT26- luc cells were analyzed by flow cytometry (Beckm an Coulter Life Sciences, CytoFLEX LX Flow Cytometer). […]
Background: Flow cytometry measures light scatter and fluorescence of single cells or particles in a stream.

On to `C=Cc1c(C)c2cc3nc(c(CC(=O)O)c4[nH]c(cc5nc(cc1[nH]2)C(C)=C5CC)c(C)c4C(=O)O)[C@@H](CCC(=O)O)[C@@H]3C` [Ce6, chlorin e6], for which, in the experiment on calreticulin (ecto‐CRT), the “ecto‐CRT signal” value is given as “weaker, but clearly visible”. Moreover, the “Concentration corresponding to approximately 5% cell survival” value in the experiment on MCA205 cells worked out at 5.5 µM.
